# Laboratory results taken from US7754795B2, “Coating composition” (3M Innovative Properties Company, priority 2006, dated 2010).
# Marks after values point to notes of the source that are not given here.
# Test: Determination of bio-accumulation: urinary clearance pharmacokinetic study in rats, with observation for toxicity and gross necropsy
# Assay type: in vivo, male Sprague Dawley rats
# Conditions: rat, oral gavage
# Protocol: The perfluorinated and partially fluorinated carboxylates were evaluated for urinary clearance using a pharmacokinetic study in rats. The goal was to measure the total amount of parent compound eliminated via urinary output and estimate the rate of elimination. The study was approved by the IACUC (Institutional Animal Care and Use Committees) and was performed in 3M Company's AAALAC (Association for Assessment and Accreditation of Laboratory Animal Care)-accredited facility.
# The study utilized male Sprague Dawley rats, 6 to 8 weeks of age, and approximately 200 to 250 g body weight at study onset. The test compounds of table 2 were administered at a dose of 73 micro Moles per kg body weight in rats (N=3 animals per tested compound). All test compounds were prepared in sterile deionized water and given to rats via oral gavage. After test compounds administration, the rats were housed individually in metabolism cages for urine collection: 0 to 6 hours, 6 to 24 hours, 24 to 48 hours and […]. Animals were observed throughout the study for clinical signs of toxicity. Gross necropsy was performed at the termination of each study (96 hours post-dose) with sera and liver samples being retained from each animal.
# The concentration of the parent compound or metabolites thereof were quantitatively measured via fluorine NMR on each urine sample for each animal at each time point based on internally added standards.
# [1] = 73 micro Moles per kg, no parent compound observed in the urine
SMILES,"T½ (73 micro Moles per kg body weight, parent compound in urine by fluorine NMR, exponential least squares curve fitting) [h]","% Recovery (96 h), based on elimination of the major metabolite C3F7—O—CHFCOO− [1]","T½ (h), based on elimination of the major metabolite C3F7—O—CHFCOO− [1]"
"N.O=C(O)C(F)(F)OC(F)(F)C(F)(F)C(F)(F)OC(F)(F)F [Compound 1, CF3—O—(CF2)3—O—CF2—COONH4]",10,,
"N.O=C(O)COC(F)(F)C(F)OC(F)(F)C(F)(F)C(F)(F)F (stereo not drawn) [Compound 16, C3F7—O—CFH—CF2—O—CH2—COONH4]",,65* %,13* h
